One test relates to MAPT 3R mRNA (Microtubule associated protein Tau). Description: RT-qPCR Assay to Quantify MAPT 3R mRNA in Cells. To be noted: MAPT 3R mRNA by RT-qPCR, GAPDH assay in same reaction; cells treated 24 h; 7-point concentration curve. It counts as cell-based. On the technique in general: Quantitative PCR measures a nucleic acid by following its amplification.
Take `C[C@H](N)Cc1[nH]c2nc(Cl)nc(NCc3ccco3)c2c1F` [Cpd 10, 6-[(2S)-2-aminopropyl]-2-chloro-5-fluoro-N-[(furan-2-yl)methyl]-7H-pyrrolo[2,3-d]pyrimidin-4-amine]: the EC (2-fold increase) is 0.05 to 0.5 µM. Same read-out and setting: then `CNCCc1[nH]c2nc(Cl)nc(NCc3ccco3)c2c1Cl` [Cpd 17, 2,5-dichloro-N-[(furan-2-yl)methyl]-6-[2-(methylamino)ethyl]-7H-pyrrolo[2,3-d]pyrimidin-4-amine], with 1 to 1.5 µM; and `C[C@H](N)Cc1c(Cl)c2c(NCc3ccco3)nc(Cl)nc2n1C` [Cpd 23, 6-[(2S)-2-aminopropyl]-2,5-dichloro-N-[(furan-2-yl)methyl]-7-methyl-7H-pyrrolo[2,3-d]pyrimidin-4-amine], with 0.05 to 0.5 µM. Consider `C[C@H](N)Cc1c(F)c2c(NCc3ccco3)nc(Cl)nc2n1C` [Cpd 24, 6-[(2S)-2-aminopropyl]-2-chloro-5-fluoro-N-[(furan-2-yl)methyl]-7-methyl-7H-pyrrolo[2,3-d]pyrimidin-4-amine], for which the EC (2-fold increase) was 0.05 to 0.5 µM. The same measure, in the same setting: then `Cc1c(C[C@H](C)N)n(C)c2nc(Cl)nc(NCc3ccco3)c12` [Cpd 35, 6-[(2S)-2-aminopropyl]-2-chloro-N-[(furan-2-yl)methyl]-5,7-dimethyl-7H-pyrrolo[2,3-d]pyrimidin-4-amine], with 0.05 to 0.5 µM.

`C[C@H](N)Cc1c(F)c2c(NCc3nccs3)nc(Cl)nc2n1C` [Cpd 38, 6-[(2S)-2-aminopropyl]-2-chloro-5-fluoro-7-methyl-N-[(1,3-thiazol-2-yl)methyl]-7H-pyrrolo[2,3-d]pyrimidin-4-amine]: the EC (2-fold increase) is 0.5 to 1 µM. Same read-out and setting: then `C[C@H](N)Cc1c(F)c2c(NCc3ccncc3F)nc(Cl)nc2n1C` [Cpd 41, 6-[(2S)-2-aminopropyl]-2-chloro-5-fluoro-N-[(3-fluoropyridin-4-yl)methyl]-7-methyl-7H-pyrrolo[2,3-d]pyrimidin-4-amine], with 0.5 to 1 µM; and `C[C@H](N)Cc1c(F)c2c(NCc3ccncc3)nc(Cl)nc2n1C` [Cpd 43, 6-[(2S)-2-aminopropyl]-2-chloro-5-fluoro-7-methyl-N-[(pyridin-4-yl)methyl]-7H-pyrrolo[2,3-d]pyrimidin-4-amine], with 0.5 to 1 µM; and `C[C@H](N)Cc1c(F)c2c(NCc3cccs3)nc(Cl)nc2n1C` [Cpd 49, 6-[(2S)-2-aminopropyl]-2-chloro-5-fluoro-7-methyl-N-[(thiophen-2-yl)methyl]-7H-pyrrolo[2,3-d]pyrimidin-4-amine], with 0.05 to 0.5 µM.

The subject of the next test is IKBKAP gene.
Test: not given
To be noted: as reported in International Publication No. WO2016/115434; cited from earlier work.
Take `Clc1nc(NCc2ccncc2)c2cc[nH]c2n1` [Comparison Compound 1, 2-chloro-N-(pyridin-4-ylmethyl)-7H-pyrrolo[2,3-d]pyrimidin-4-amine]: the “potency in correcting mRNA splicing and promoting exon 20 inclusion in the IKBKAP gene” value is on record as “very potent”.
